How the values were obtained:
endothelial cells = experiment: Viability of endothelial cells subjected to linoleic acid hydroperoxide (MTT); format: cell-based, human; details: compound 4 μM, 1 h; 18:2-OOH 50 μM, 2 h; MTT after about twenty hours
Experimental: Human endothelial cells were cultivated at 37° C. in multi-hole plates or Petri dishes in an atmosphere of saturated humidity constituted by a gaseous mixture of 95% air and 5% of CO2. The culture medium was constituted by a M 199 medium, pH=7.4, containing 20% of foetal calf serum, 2 mM of L-glutamine, 100 U/ml of penicillin, 100 μg/ml of streptomycin and 1% by volume of a medium supplement containing heparin and a cell growth factor.
When the cells were near confluence, they were incubated for one hour in the presence or absence of one of the following compounds: BXT-51056, BXT-51072, BXT-51077, or ebelsen. Each of these compounds was incorporated at 4 μM into culture medium containing 2% of foetal calf serum, all other conditions being the same.
After washing the cells three successive times with a PBS buffer, they were incubated in the presence or absence (control) of linoleic acid hydroperoxide (18:2-OOH), 50 μM, in the culture medium defined above. […] After about twenty hours, the viability of the cells was determined by measurement using the bromide of 3-(4,5-dimethylthiazol-2-yl)-2,5-diphenyl-2H-tetrazolium (MTT).
The results are shown in FIG. 1, expressed as the survival percentage with respect to the control and where the reference is shown by the black rectangle.

interleukin 8 (IL-8) = experiment: Endothelial production of interleukin 8 induced by TNF-α; format: cell-based, human; details: Homo sapiens, 4 h, read-out: inhibition of IL-8 production induced by TNF-α
Experimental: (§1) Human endothelial cells were cultivated under the same conditions as those described for Example 18.
When the cells were near confluence, they were incubated for one hour in the presence or absence of the following compounds: BXT-51072, BXT-51077 or ebselen. Each of these compounds was incorporated into culture medium containing 2% of foetal calf serum at 10 μM, all other conditions being the same. […] After four hours of incubation, the interleukin 8 (IL-8) in the culture medium was measured.

[1] = test system: von Willebrandt factor (vWf); experiment: Protection of endothelial cells against interleukin 1 (von Willebrandt factor release); format: cell-based; details: Homo sapiens, Endothelial cell; compound 10 μM; IL-1α 50 U/ml; 4 h; compound present or not during IL-1 incubation; read-out: inhibition of increase in vWf liberation induced by IL-1
Experimental: as §1
When the cells were near confluence, they were incubated for one hour in the presence or absence of the following compounds: BXT-51072, BXT-51077, each of these compounds being at 10 μM in culture medium containing 2% of foetal calf serum , all other conditions being the same. The cells were then washed three times with a PBS buffer. The cells which had not been pretreated by a compound were incubated in the presence or absence (control) of interleukin 1α (IL-1α), at 50 U/ml, in the same culture medium. […] After four hours of incubation, the von Willebrandt factor (vWf) in the culture medium was measured.

With `CC1(C)CN[Se]c2ccccc21` [BXT-51072, 4,4-dimethyl-benzisoselenazine] the “protection of the cells from death induced by 18:2-OOH” value (endothelial cells) was “significantly protected the cells from death”, the inhibition at 10 µM (interleukin 8 (IL-8)) was no less than 70% and the inhibition at 10 µM [1] was greater than 70%.

From patent US5968920A, “Compounds having a benzisoselen-azoline and -azine structure, method for preparing same and therapeutic uses thereof” (Oxis Isle of Man, Limited, priority 1994, dated 1999)
